From publication PMC4395004 (Pharmaceutical research, 2013)

Test: PK study of P-S after topical
Format: in vivo, rat
Conditions: for Tmax: LEW/crlBR, rat, po, 50 mg/kg
[1] = oral gavage P-S 50 mg/kg single dose, blood
[2] = oral gavage P-S 50 mg/kg single dose, muscle
[3] = topical PSH, single dose P-S 50 mg/kg on both hind legs, muscle
[4] = topical PSH, single dose P-S 50 mg/kg, blood
[5] = topical PSH, single dose P-S 50 mg/kg, muscle

Row | Tmax (blood) [h] | Tmax (muscle) [h] | AUC0–24h, blood [1] | Cmax, blood [1] [nmol/g] | AUC0–24h, muscle [2] | Cmax, muscle [2] [nmol/g] | Cmax, muscle [3] [nmol/g] | AUC0–24h, blood [4] | Cmax, blood [4] [nmol/g] | AUC0–24h, muscle [5] | muscle Cmax (topical PSH, muscle) [nmole/g tissue] | Tmax, blood [1] [h] | Tmax, muscle [2] [h] | Tmax, blood [4] [h] | Tmax, muscle [5] [h] | SMILES
1 | 8 | 8 | 156 (nmole/g)*h | 13 | 158 (nmole/g)*h | 13 | 2 | 122 (nmole/g)*h | 10 | 18 (nmole/g)*h | ≤ 31 |  |  |  |  | CSc1ccc(/C=C2/C(C)=C(CC(=O)O)c3cc(F)ccc32)cc1 [S.sulfide, sulindac sulfide]
2 | 2 | 8 | 405 (nmole/g)*h | 33 | 296 (nmole/g)*h | 20 | 31 | 245 (nmole/g)*h | 18 | 399 (nmole/g)*h | ≤ 31 |  |  |  |  | CC1=C(CC(=O)O)c2cc(F)ccc2/C1=C\c1ccc([S+](C)[O-])cc1 (stereo not shown) [Sulindac, sulindac, reference compound]
3 |  |  |  | 52 | 764 (nmole/g)*h | 40 | 12 | 400 (nmole/g)*h | 23 | 170 (nmole/g)*h | ≤ 31 | 8 | 8 | 8 | 24 | CC1=C(CC(=O)O)c2cc(F)ccc2/C1=C\c1ccc(S(C)(=O)=O)cc1 [S.sulfone, sulindac sulfone]
